Assay results reported in patent US12179400B2, “Multiple-matrix monolithic moulded part for the diffusion of active ingredients and method for obtaining same” (AB7 Innovation S.A.S.U., priority 2017, dated 2024).

Columns and labels:
Assay type in all cases: physicochemical
[1] = GPC assay of active ingredients (repellent tracers) in EVA collars at T0 after injection and after 7 days of stability at 50° C.; conditions: for Active ingredient loss (%): EVA; for cumulative loss: collar (C1), T0 loss plus loss after 7 days at 50° C.
Experimental: In a 1 L beaker, 200 g of vitamin F, 160 g of Mentha pulegium essential oil, 31.2 g of eucalyptus essential oil, 8 g of lemongrass essential oil and 0.8 g of geraniol are mixed. The mixture is stirred lightly until a homogeneous liquid mixture is obtained.
3519.2 g of EVA are introduced into a cylindrical mixer preheated to 70° C. Then, the above homogeneous liquid mixture is slowly introduced. The mixture is left to be stirred gently until dry granules are obtained. 80 g of pistachio green dye are added and then mixed for 5 minutes. A compound is obtained consisting of EVA polymers loaded with 11.1% by weight of all the active ingredients combined, or 5.5% by weight of vitamin F and 5.6% by weight of repellents.
The above compound is injected into a collar 60 cm long by 1 cm wide and weighing 25 g.
The collars (C1) thus obtained were analyzed by GPC assay of the active ingredients contained in the matrix at time zero (T0) after injection, then after 7 days of stability at 50° C. in watertight-sealed packaging.
In parallel, by proceeding according to the same protocol, vitamin F was replaced by coconut oil, in the same proportions, then the corresponding collar compound (C2) was injected. The analyses by GPC assay of the collars (C2) gave the results recorded in Table 2. […]

[2] = In vitro release profile in plant oil from antiparasitic TPU (EPAMOULD) collar; conditions: for release profile: bi-injected collar: one matrix 8% permethrin in 5% SANTICIZER 141, other matrix 4% deltamethrin in 22% SANTICIZER 141; for amount released after 15 days: single EPAMOULD matrix with 8% permethrin and 4% deltamethrin, both in 22% SANTICIZER 141
Experimental: 8% permethrin is solubilized in 22% of SANTICIZER 141® Then, 4% deltamethrin is added, before adding the homogeneous mixture in a single EPAMOULD® matrix.
FIG. 3: In vitro release profile in the plant oil from the pest control collar containing 8% permethrin and 4% deltamethrin, both solubilized in 22% SANTICIZER 141®
Therefore, the same amount (8%) of permethrin was solubilized in 5% SANTICIZER® 141 prior to incorporation into a EPAMOULD® matrix as above, in order to obtain a permethrin compound. In parallel, the same quantity of deltamethrin (4%) solubilized in 22% of SANTICIZER® 141 was mixed, prior to incorporation into a EPAMOULD® matrix, in order to obtain a deltamethrin compound.
The two compounds obtained are injected simultaneously in a collar using the bi-injection press as described in Example 1.
FIG. 4: In vitro release profile in plant oil of the antiparasitic collar obtained by bi-injection including a matrix containing 8% of permethrin solubilized in 5% of SANTICIZER 141® and the other matrix containing 4% of deltamethrin dissolved in 22% of SANTICIZER 141®.

[3] = Release profile at room temperature of active ingredient incorporated at 10% into polymer matrix bracelets; conditions: for release profile: 10% loading
Experimental: Studies carried out by the inventors have made it possible to prepare the release profiles of limonene as a function of the polymers used, namely PEBA, EVA and the bio-based polyethylene (PE) copolymer. Compounds loaded with 10% limonene were injected in a bracelet.
FIG. 1: release profile at room temperature of limonene incorporated at 10% into different polymer matrices.
10% essential oil of Eucalyptus radiata has been incorporated into an EVA polymer matrix.
FIG. 2: release profile at room temperature of Eucalyptus radiata essential oil incorporated at 10% into an EVA matrix

[4] = collars (C1), 5.5% Vitamin F and 5.6% repellents, at T0 after injection
[5] = collars (C1), 5.5% Vitamin F and 5.6% repellents, at T = 7 days at 50° C., watertight-sealed packaging
[6] = collars (C2), 5.5% coconut and 5.6% repellents, at T0 after injection
[7] = collars (C2), 5.5% coconut and 5.6% repellents, at T = 7 days at 50° C.
[8] = PEBA bracelet loaded with 10% limonene

| SMILES | Active ingredient loss (%) [1, 4] [%] | Active ingredient loss (%) [1, 5] [%] | Active ingredient loss (%) [1, 6] [%] | Active ingredient loss (%) [1, 7] [%] | cumulative loss [1] [%] | other results |
| --- | --- | --- | --- | --- | --- | --- |
| CC(C)=C1CC[C@@H](C)CC1=O [Pulegone] | 11 | 10 | 0 | 0 | – | – |
| CC(C)=CCCC(C)CCO (centres unmarked) [Citronellol] | 7 | 20 | 3 | 0 | 27 | Active ingredient loss (%) ([1]; collars (C1), 5.5% Vitamin F and 5.6% repellents, at T0 after injection, listed as citronellol): 7%; Active ingredient loss (%) ([1]; collars (C1), 5.5% Vitamin F and 5.6% repellents, at T = 7 days at 50° C., watertight-sealed packaging, listed as citronellol): 20%; Active ingredient loss (%) ([1]; collars (C2), 5.5% coconut and 5.6% repellents, at T0 after injection, listed as citronellol): 3% |
| CC1(C)C(C=C(Cl)Cl)C1C(=O)OCc1cccc(Oc2ccccc2)c1 (centres unmarked) [permethrin] | – | – | – | – | – | release profile [2]: substantially similar release profile; amount released after 15 days [2]: 52% |
| CC1(C)[C@H](C(=O)O[C@H](C#N)c2cccc(Oc3ccccc3)c2)[C@@H]1C=C(Br)Br [deltamethrin] | – | – | – | – | – | release profile [2]: substantially similar release profile; amount released after 15 days [2]: 18% |
| CC(C)=CCC/C(C)=C/CO [Geraniol, geraniol] | 6 | 30 | 0 | 0 | 36 | Active ingredient loss (%) ([1]; collars (C1), 5.5% Vitamin F and 5.6% repellents, at T0 after injection, listed as geraniol): 6%; Active ingredient loss (%) ([1]; collars (C1), 5.5% Vitamin F and 5.6% repellents, at T = 7 days at 50° C., watertight-sealed packaging, listed as geraniol): 30% |
| CC(C)=CCCC(C)CC=O (centres unmarked) [Citronellal] | 12 | 38 | 0 | 3 | 50 | Active ingredient loss (%) ([1]; collars (C1), 5.5% Vitamin F and 5.6% repellents, at T0 after injection, listed as citronellal): 12%; Active ingredient loss (%) ([1]; collars (C1), 5.5% Vitamin F and 5.6% repellents, at T = 7 days at 50° C., watertight-sealed packaging, listed as citronellal): 38%; Active ingredient loss (%) ([1]; collars (C2), 5.5% coconut and 5.6% repellents, at T = 7 days at 50° C., listed as citronellal): 3% |
| CC12CCC(CC1)C(C)(C)O2 [Cineole] | 12 | 4 | 0 | 0 | 16 | Active ingredient loss (%) ([1]; collars (C1), 5.5% Vitamin F and 5.6% repellents, at T0 after injection, listed as cineole): 12%; Active ingredient loss (%) ([1]; collars (C1), 5.5% Vitamin F and 5.6% repellents, at T = 7 days at 50° C., watertight-sealed packaging, listed as cineole): 4% |
| C=C(C)[C@H]1CC=C(C)CC1 [limonene, Limonene] | – | – | – | – | – | release profile ([3]; EVA matrix): releases gradually; amount released after 2 days [3, 8]: 70%; time until bracelet empty [3, 8]: 6 days; release profile ([3]; PEBA bracelet): very quickly and in a significant quantity; release profile ([3]; bio-based polyethylene (PE) copolymer bracelet): retains; remaining amount after 10 days ([3]; incorporated at 10% into EVA matrix): 42% |
